Values of other authors, collected in patent US20150290173A1, “TREATMENT OF SKIN OR MUCOSAL PATHOLOGY” (ZARZATECH, INC., priority 2012, published 2015).
Structures can show the parent of a compound that is named as a salt.

How the values were obtained:
[1] = dog gingivitis model
[2] = tested on: crevicular neutrophils; conditions: topical 0.5% oral rinse, humans

SMILES	anti-gingivitis activity ([1]; dose response study)	antibacterial function of crevicular neutrophils [2]	clinical benefit on gingivitis [2]	gingival inflammation and gingival bleeding [1]
CN/C(=N/CCSCc1nc[nH]c1C)NC#N [cimetidine HCL]	significant anti-gingivitis activity that increased with increasing dose			
CN/C(=N/CCSCc1nc[nH]c1C)NC#N [cimetidine, Cimetidine]		enhanced antibacterial function of crevicular neutrophils	no clinical benefit on gingivitis	significantly reduced gingival inflammation and gingival bleeding
